Source: paper PMC10414684, “Novel integrated computational AMP discovery approaches highlight diversity in the helminth AMP repertoire” (PLOS Pathogens, 2023)
No end group written: not given here.

What was measured:
E. coli K12 = test: Minimum inhibitory concentration, microbroth dilution; type: cell-based, Escherichia coli; conditions: cation-adjusted MHB, 5x10^5 CFU/ml, 37°C, 18–24 h, visible growth; for MIC E. coli K12 (-): peptides 512–0.25μg/ml, >70% purity (Cecropin P1 >95%), Ciprofloxacin 32–0.02μg/ml
Experimental: (§1) Prioritised helminth AMP-LPs were synthesised at >70% purity (Genosphere Biotechnologies). […] Peptides and control antibiotics [Ciprofloxacin (for gram-negative species; Sigma-Aldrich) and Vancomycin hydrochloride (for gram-positive species; Sigma-Aldrich)] were dissolved in sterile ultrapure water at a concentration of 5.12mg/ml. Minimum inhibitory concentrations (MICs) were determined for gram-positive and gram-negative bacterial isolates (see Table 3 for species) using microbroth dilution assays as described previously. Briefly, a single colony from each bacterial species was inoculated in cation-adjusted Mueller Hinton Broth (MHB) and grown for 18–24 hours at 37°C with shaking (225rpm) before being adjusted to a final bacterial density of 5x10^5 colony forming units (CFU) per ml. Peptides and Vancomycin hydrochloride were diluted using sterile MHB in sterile U-bottom 96 well polypropylene microplates (Greiner Bio One, UK) to give a concentration gradient ranging from 512–0.25μg/ml. Ciprofloxacin was further diluted in sterile MHB to give a concentration gradient ranging from 32–0.02μg/ml. Microplates were incubated at 37°C for 18–24 hours. Plates were assessed for visible growth and the MIC was defined as the lowest concentration of peptide or antibiotic that inhibited visible growth of a bacterial culture after an 18–24-hour incubation. MIC data were validated by positive and negative control antibiotic MIC data for each bacterial isolate.

A. baumannii DSM 30007 = test: as above; type: cell-based, Acinetobacter baumannii; conditions: cation-adjusted MHB, 5x10^5 CFU/ml, 37°C, 18–24 h, visible growth; for MIC A. baumannii DSM 30007 (-): peptides 512–0.25μg/ml, >70% purity (Cecropin P1 >95%), Ciprofloxacin 32–0.02μg/ml
Experimental: as §1

P. aeruginosa PA01 = test: as above; type: cell-based, Pseudomonas aeruginosa; conditions: cation-adjusted MHB, 5x10^5 CFU/ml, 37°C, 18–24 h, visible growth; for MIC P. aeruginosa PA01 (-): peptides 512–0.25μg/ml, >70% purity (Cecropin P1 >95%), Ciprofloxacin 32–0.02μg/ml
Experimental: as §1

S. aureus EMRSA-15 = test: microbe, parasite or virus in culture; type: cell-based, Staphylococcus aureus; conditions: Methicillin-resistant; microbroth dilution, cation-adjusted MHB, 5x10^5 CFU/ml, 37°C, 18–24 h, visible growth; peptides and Vancomycin hydrochloride 512–0.25μg/ml; peptides >70% purity (Cecropin P1 >95%)
Experimental: as §1

S. aureus RN4220 = test: microbe, parasite or virus in culture; type: cell-based, Staphylococcus aureus; conditions: Methicillin-Sensitive; microbroth dilution, cation-adjusted MHB, 5x10^5 CFU/ml, 37°C, 18–24 h, visible growth; peptides and Vancomycin hydrochloride 512–0.25μg/ml; peptides >70% purity (Cecropin P1 >95%)
Experimental: as §1

E. faecalis JH2-2 = test: microbe, parasite or virus in culture; type: cell-based, Enterococcus faecalis
Experimental: as §1

[1] = test system: gram-positive and gram-negative bacterial isolates; type: cell-based
Experimental: as §1, with “MIC data were validated by positive and negative control antibiotic MIC data for each bacterial isolate.” left out

[2] = Computationally predicted from Kunitz inhibitor protein; ref [21]; cited from earlier work
Excerpt: Table 4 Reported AMPs from Schistosoma mansoni. | column: Activity reported

[3] = microbroth dilution, cation-adjusted MHB, 5x10^5 CFU/ml, 37°C, 18–24 h, visible growth, peptides and Vancomycin hydrochloride 512–0.25μg/ml, peptides >70% purity (Cecropin P1 >95%)

Substance | MIC E. coli K12 (-) (E. coli K12) | MIC A. baumannii DSM 30007 (-) (A. baumannii DSM 30007) | MIC P. aeruginosa PA01 (-) (P. aeruginosa PA01) | MIC S. aureus EMRSA-15 (+) (S. aureus EMRSA-15) | MIC S. aureus RN4220 (+) (S. aureus RN4220) | MIC E. faecalis JH2-2 (+) (E. faecalis JH2-2; [3]) | other results
GLGKSLKKIGRKIDKGFRKIRDRAGASVSFGSGQKPQGSIQISPV-NH2 [nAMP-LP-617] | 4 µg/mL | 8 µg/mL | 32 µg/mL | / (/ indicates that there was no activity at the highest concentration of peptide used (512μg/ml)) | / (/ indicates that there was no activity at the highest concentration of peptide used (512μg/ml)) | / (/ indicates that there was no activity at the highest concentration of peptide used (512μg/ml)) | MIC (E. coli K12; read-out: MIC E. coli K12 (-), μM in brackets): 1 µM; MIC (A. baumannii DSM 30007; read-out: MIC A. baumannii DSM 30007 (-), μM in brackets): 2 µM; MIC (P. aeruginosa PA01; read-out: MIC P. aeruginosa PA01 (-), μM in brackets): 7 µM; MIC against gram-negative species screened [1]: 4 to 32 µg/mL
GILDIKNKVSNLFKKIK [Schistocin-2] |  |  |  |  |  |  | Activity reported [2]: Antifungal
AVAHVALKLATSPVGKVALNAMVPGAGTVLGVAAKHHGMVKKLVRV [nAMP-LP-224, nematode AMP-like peptide selected for synthesis and MIC screening] | / (/ indicates that there was no activity at the highest concentration of peptide used (512μg/ml)) | / (/ indicates that there was no activity at the highest concentration of peptide used (512μg/ml)) | / (/ indicates that there was no activity at the highest concentration of peptide used (512μg/ml)) | / (/ indicates that there was no activity at the highest concentration of peptide used (512μg/ml)) | / (/ indicates that there was no activity at the highest concentration of peptide used (512μg/ml)) | / (/ indicates that there was no activity at the highest concentration of peptide used (512μg/ml)) | 
GILDIKNKVSNLFKKIKGEK [Schistocin-1] |  |  |  |  |  |  | Activity reported (all activity) [2]: All activity >100μM
EYLRKVKDAGAGKAKGGGAPGAESKSGKKSGSAETAASGGAKKGKKK [nAMP-LP-98, nematode AMP-like peptide selected for synthesis and MIC screening] | / (/ indicates that there was no activity at the highest concentration of peptide used (512μg/ml)) | / (/ indicates that there was no activity at the highest concentration of peptide used (512μg/ml)) | / (/ indicates that there was no activity at the highest concentration of peptide used (512μg/ml)) | / (/ indicates that there was no activity at the highest concentration of peptide used (512μg/ml)) | / (/ indicates that there was no activity at the highest concentration of peptide used (512μg/ml)) | / (/ indicates that there was no activity at the highest concentration of peptide used (512μg/ml)) | 
GILDIKNKVSNLF [Schistocin-3] |  |  |  |  |  |  | Activity reported [2]: Antibacterial Antifungal
GFGKWVKKKWGSVRKGASKLVKGVKKVFPKKGIPIIRYERRF [nAMP-LP-249] |  |  |  |  |  |  | MIC E. faecalis JH2-2 (+) (E. faecalis JH2-2; JH2-2): 16 µg/mL; MIC against gram-negative species screened [1]: 8 µg/mL
